US7435731B2, “Substituted pyrazolo[3,4-d]pyrimadines and methods of using the same” (Roche Palo Alto LLC, priority 2004, dated 2008)

Experiments:
p38 MAP kinase = target: T1, p38 MAP kinase (Homo sapiens, UniProt Q16539); test: p38 (MAP) kinase in vitro assay, transfer of γ-33P-phosphate from ATP to Myelin Basic Protein; assay type: biochemical; conditions: phosphorylated recombinant p38 MAP kinase, MBP substrate, γ-33P-ATP, 30° C.
T1 construct: made in house; host or cells: E. coli (co-expressed with SEK-1 and MEKK)
T1 sequence (Q16539 whole entry): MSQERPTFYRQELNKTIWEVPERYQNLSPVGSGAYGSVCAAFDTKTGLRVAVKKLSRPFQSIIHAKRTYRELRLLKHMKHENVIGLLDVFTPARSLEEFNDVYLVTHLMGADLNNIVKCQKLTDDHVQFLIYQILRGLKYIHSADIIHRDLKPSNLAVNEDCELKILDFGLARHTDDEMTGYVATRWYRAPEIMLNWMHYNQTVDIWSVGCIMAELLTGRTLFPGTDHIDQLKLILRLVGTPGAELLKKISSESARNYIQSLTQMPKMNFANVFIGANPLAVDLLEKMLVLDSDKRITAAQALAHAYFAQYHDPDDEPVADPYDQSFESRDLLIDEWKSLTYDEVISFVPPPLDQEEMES
Method: This example illustrates a p38 (MAP) kinase in vitro assay useful for evaluating the compounds of the invention.
The p38 MAP kinase inhibitory activity of compounds of this invention in vitro was determined by measuring the transfer of the γ-phosphate from γ-^33P-ATP by p-38 kinase to Myelin Basic Protein (MBP), using a minor modification of the method described in Ahn, et al., J. Biol. Chem. 266:4220-4227 (1991).
The phosphorylated form of the recombinant p38 MAP kinase was co-expressed with SEK-1 and MEKK in E. Coli (see, Khokhlatchev, et al., J. Biol. Chem. 272:11057-11062 (1997)) and then purified by affinity chromatography using a Nickel column.
The phosphorylated p38 MAP kinase was diluted in kinase buffer (20 mM 3-(N-morpholino)propanesulfonic acid, pH 7.2, 25 mM β-glycerol phosphate, 5 mM ethylene glycol-bis(beta-aminoethyl ether)-N,N,N′,N′-tetraacetic acid, 1 mM sodium ortho-vanadate, 1 mM dithiothreitol, 40 mM magnesium chloride). Test compound dissolved in DMSO or only DMSO (control) was added and the samples were incubated for 10 min at 30° C. The kinase reaction was initiated by the addition of a substrate cocktail containing MBP and γ-^33P-ATP. […] The phosphorylated MBP was then separated from the residual γ-^33P-ATP using a phosphocellulose membrane (Millipore, Bedford, Mass.) and quantitated using a scintillation counter (Packard, Meriden, Conn.).

SMILES	melting point	IC50 (p38 MAP kinase)
C[C@H](O)CNc1nc(Oc2ccc(F)cc2F)cc2[nH]nc(-c3ccccc3Cl)c12 [Example 9, (S)-1-[3-(2-Chloro-phenyl)-6-(2,4-difluoro-phenoxy)-1H-pyrazolo[4,3-c]pyridin-4-ylamino]-propan-2-ol]	171.2 to 172 °C	–
C[C@H](O)CNc1cc(Oc2ccc(F)cc2F)nc2[nH]nc(-c3ccccc3Cl)c12 [Example 10, (S)-1-[3-(2-Chloro-phenyl)-6-(2,4-difluoro-phenoxy)-1H-pyrazolo[3,4-b]pyridin-4-ylamino]-propan-2-ol]	237.9 to 238.5 °C	–
OC[C@@H](O)CNc1nc(Oc2ccc(F)cc2F)nc2[nH]nc(-c3ccccc3Cl)c12 [3-[3-(2-Chloro-phenyl)-6-(2,4-difluoro-phenoxy)-1H-pyrazolo[3,4-d]pyrimidin-4-ylamino]-propane-1,2-diol]	–	4 nM
OC[C@H](O)COc1nc(Oc2ccc(F)cc2F)nc2[nH]nc(-c3ccccc3Cl)c12 [Example 5, (S)-3-[3-(2-Chloro-phenyl)-6-(2,4-difluoro-phenoxy)-1H-pyrazolo[3,4-d]pyrimidin-4-yloxy]-propane-1,2-diol]	179.2 to 181.3 °C	–
C[C@H](O)CNc1nc(Oc2ccc(F)cc2F)nc2[nH]nc(-c3ccccc3Cl)c12 [Example 1, (S)-1-[3-(2-chlorophenyl)-6-(2,4-difluorophenoxy)-1H-pyrazolo[3,4-d]pyrimidin-4-ylamino]propan-2-ol]	254.6 to 258.2 °C	–
